Laboratory results reported in ChEMBL document CHEMBL1144931, “Synthesis, characterization, and biological properties of 8-azido- and 8-amino-substituted 2',5'-oligoadenylates” (J Med Chem, 2003).
pIC50: −log10 of the molar value.

Key:
[1] = target: T1, 2-5A-dependent ribonuclease (Mus musculus, UniProt Q05921); assay: Displacement of [125I]-labeled 2-5A from 2-5A dependent Ribonuclease L (RNase L) of mouse liver
T1 sequence (Q05921 whole entry): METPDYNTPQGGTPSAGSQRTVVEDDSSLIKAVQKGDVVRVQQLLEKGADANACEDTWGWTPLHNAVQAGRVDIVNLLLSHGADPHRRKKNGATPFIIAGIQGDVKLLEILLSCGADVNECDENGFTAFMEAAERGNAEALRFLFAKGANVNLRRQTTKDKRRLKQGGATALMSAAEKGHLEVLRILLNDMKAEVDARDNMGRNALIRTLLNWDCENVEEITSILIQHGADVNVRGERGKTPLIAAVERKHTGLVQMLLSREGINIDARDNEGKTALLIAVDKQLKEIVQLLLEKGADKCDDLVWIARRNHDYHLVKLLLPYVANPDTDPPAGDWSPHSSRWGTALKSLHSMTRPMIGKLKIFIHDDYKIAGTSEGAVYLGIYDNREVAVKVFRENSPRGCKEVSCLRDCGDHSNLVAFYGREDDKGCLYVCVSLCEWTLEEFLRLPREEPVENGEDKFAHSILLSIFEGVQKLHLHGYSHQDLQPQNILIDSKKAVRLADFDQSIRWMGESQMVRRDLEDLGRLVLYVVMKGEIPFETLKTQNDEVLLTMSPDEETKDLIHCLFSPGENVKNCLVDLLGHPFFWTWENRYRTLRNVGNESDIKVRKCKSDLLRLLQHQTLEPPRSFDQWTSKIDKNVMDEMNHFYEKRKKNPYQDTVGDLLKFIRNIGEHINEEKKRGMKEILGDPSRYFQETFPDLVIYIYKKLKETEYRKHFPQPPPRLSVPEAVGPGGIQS

[2] = target: T2, 2-5A-dependent ribonuclease (Mus musculus) (UniProt Q05921); assay: Relative displacement of [125I]-labeled 2-5A from Ribonuclease L of mouse liver compared to pApApA
T2 sequence (whole entry): T1 sequence (Q05921 whole entry)

SMILES	pIC50 [1]	Relative activity [2]
[N-]=[N+]=Nc1nc2c(N)ncnc2n1C1O[C@H](COP(=O)(O)O[C@H]2C(n3c(N=[N+]=[N-])nc4c(N)ncnc43)O[C@H](COP(=O)(O)O)[C@H]2O)[C@@H](O)[C@H]1O (stereo partly specified)	5.30	0.0008
[N-]=[N+]=Nc1nc2c(N)ncnc2n1C1O[C@H](COP(=O)(O)O[C@H]2C(n3c(N=[N+]=[N-])nc4c(N)ncnc43)O[C@H](CO)[C@H]2O)[C@@H](O)[C@H]1O (stereo partly specified)	< 5.00	< 0.0004
[N-]=[N+]=Nc1nc2c(N)ncnc2n1[C@@H]1O[C@H](COP(=O)(O)O[C@@H]2[C@H](O)[C@@H](COP(=O)(O)O[C@@H]3[C@H](O)[C@@H](COP(=O)(O)O[C@@H]4[C@H](O)[C@@H](CO)O[C@H]4n4c(N=[N+]=[N-])nc5c(N)ncnc54)O[C@H]3n3c(N=[N+]=[N-])nc4c(N)ncnc43)O[C@H]2n2c(N=[N+]=[N-])nc3c(N)ncnc32)[C@@H](O)[C@H]1O	7.30	0.8
Nc1ncnc2c1nc(N)n2C1O[C@H](COP(=O)(O)O[C@H]2C(n3c(N)nc4c(N)ncnc43)O[C@H](CO)[C@H]2O)[C@@H](O)[C@H]1O (stereo partly specified)	< 5.00	< 0.0004
Nc1ncnc2c1nc(N)n2C1O[C@H](COP(=O)(O)O[C@H]2C(n3c(N)nc4c(N)ncnc43)O[C@H](COP(=O)(O)O)[C@H]2O)[C@@H](O)[C@H]1O (stereo partly specified)	< 5.00	< 0.0004
[N-]=[N+]=Nc1nc2c(N)ncnc2n1[C@@H]1O[C@H](COP(=O)(O)O[C@@H]2[C@H](O)[C@@H](COP(=O)(O)O[C@@H]3[C@H](O)[C@@H](COP(=O)(O)O[C@@H]4[C@H](O)[C@@H](COP(=O)(O)O)O[C@H]4n4c(N=[N+]=[N-])nc5c(N)ncnc54)O[C@H]3n3c(N=[N+]=[N-])nc4c(N)ncnc43)O[C@H]2n2c(N=[N+]=[N-])nc3c(N)ncnc32)[C@@H](O)[C@H]1O	8.70	2

Results, then the compound that gave them:

pIC50 [1]	Relative activity [2]	SMILES
6.00	0.004	Nc1ncnc2c1nc(N)n2[C@@H]1O[C@H](COP(=O)(O)O[C@@H]2[C@H](O)[C@@H](COP(=O)(O)O[C@@H]3[C@H](O)[C@@H](COP(=O)(O)O[C@@H]4[C@H](O)[C@@H](CO)O[C@H]4n4c(N)nc5c(N)ncnc54)O[C@H]3n3c(N)nc4c(N)ncnc43)O[C@H]2n2c(N)nc3c(N)ncnc32)[C@@H](O)[C@H]1O
8.52	–	Nc1ncnc2c1ncn2[C@@H]1O[C@H](CO[P@](=O)(O)O[C@@H]2[C@H](O)[C@@H](CO[P@](=O)(O)O[C@@H]3[C@H](O)[C@@H](CO[P@](=O)(O)O[P@@](=O)(O)OP(=O)(O)O)O[C@H]3n3cnc4c(N)ncnc43)O[C@H]2n2cnc3c(N)ncnc32)[C@@H](O)[C@H]1O
7.15	0.6	[N-]=[N+]=Nc1nc2c(N)ncnc2n1C1O[C@H](COP(=O)(O)O[C@H]2C(n3c(N=[N+]=[N-])nc4c(N)ncnc43)OC(COP(=O)(O)O[C@H]3C(n4c(N=[N+]=[N-])nc5c(N)ncnc54)O[C@H](CO)[C@H]3O)[C@H]2O)[C@@H](O)[C@H]1O (stereo partly specified)
< 5.00	< 0.0004	Nc1ncnc2c1nc(N)n2[C@@H]1O[C@H](COP(=O)(O)O[C@@H]2[C@H](O)[C@@H](COP(=O)(O)O[C@@H]3[C@H](O)[C@@H](CO)O[C@H]3n3c(N)nc4c(N)ncnc43)O[C@H]2n2c(N)nc3c(N)ncnc32)[C@@H](O)[C@H]1O
8.70	2	[N-]=[N+]=Nc1nc2c(N)ncnc2n1C1OC(COP(=O)(O)O)C(O)C1OP(=O)(O)OCC1OC(n2c(N=[N+]=[N-])nc3c(N)ncnc32)C(OP(=O)(O)OC[C@H]2OC(n3c(N=[N+]=[N-])nc4c(N)ncnc43)[C@H](O)[C@@H]2O)C1O (stereo partly specified)
6.30	0.008	Nc1ncnc2c1nc(N)n2C1O[C@H](COP(=O)(O)O[C@H]2C(n3c(N)nc4c(N)ncnc43)O[C@H](COP(=O)(O)O[C@H]3C(n4c(N)nc5c(N)ncnc54)O[C@H](COP(=O)(O)O[C@H]4C(n5c(N)nc6c(N)ncnc65)O[C@H](COP(=O)(O)O)[C@H]4O)[C@H]3O)[C@H]2O)[C@@H](O)[C@H]1O (stereo partly specified)
< 5.00	< 0.0004	Nc1ncnc2c1nc(N)n2[C@@H]1O[C@H](COP(=O)(O)O[C@@H]2[C@H](O)[C@@H](COP(=O)(O)O[C@@H]3[C@H](O)[C@@H](COP(=O)(O)O)O[C@H]3n3c(N)nc4c(N)ncnc43)O[C@H]2n2c(N)nc3c(N)ncnc32)[C@@H](O)[C@H]1O
–	1.3	Nc1ncnc2c1ncn2[C@@H]1O[C@H](COP(=O)(O)O[C@@H]2[C@H](O)[C@@H](COP(=O)(O)O[C@@H]3[C@H](O)[C@@H](COP(=O)(O)OP(=O)(O)OP(=O)(O)O)O[C@H]3n3cnc4c(N)ncnc43)O[C@H]2n2cnc3c(N)ncnc32)[C@@H](O)[C@H]1O
